Assay results published in ChEMBL document CHEMBL1157539, “Thousands of chemical starting points for antimalarial lead identification” (Nature, 2010).

Test system: Plasmodium falciparum
Test: GSK_TCMDC: Inhibition of Plasmodium falciparum 3D7 in whole erythrocytes, using parasite LDH activity as an index of growth.
Type: functional, organism-based
Details: Plasmodium falciparum, 3D7

**Q.** `O=C(Cn1c(CCc2cccc(F)c2F)nc(=O)c2ccccc21)N(Cc1ccc(-c2ccc(C(F)(F)F)cc2)cc1)C1CCN(C2=NCCS2)CC1` was tested. Which XC50 did it give?
**A.** 1330 nM

**Q.** For `Cc1cc2c(NC(=O)NC3CCN(Cc4ccc(Cl)c(Cl)c4)CC3)cccc2cn1`, which XC50 is on record?
**A.** 681 nM

**Q.** For `O=C(Nc1ccc(-c2cccc(-c3nc4ccccc4[nH]3)c2)cc1)Nc1ccc2c(c1)OCO2`, which XC50 is on record?
**A.** 254 nM

**Q.** How did the XC50 turn out when `COc1cc(C(=O)Nc2ccc(-c3nc4ccccc4[nH]3)cc2)cc(OC)c1OC` was run?
**A.** 982 nM

**Q.** For `O=C(COc1cccc([N+](=O)[O-])c1)Nc1ccc(-c2nc3ccccc3[nH]2)cc1`, which XC50 is on record?
**A.** 754 nM

**Q.** Which XC50 does the source give for `O=C(/C=C/c1ccc(Cl)cc1)NCCCCCN1CCN(C(=O)Nc2ccc(Cl)c(C(F)(F)F)c2)CC1` here?
**A.** 920 nM

**Q.** Which XC50 does the source give for `O=C(n1c(-c2cc3ccccc3n2C(=O)C(F)(F)F)cc2ccccc21)C(F)(F)F` here?
**A.** 878 nM

**Q.** For `CC(=O)Nc1ccc(S(=O)(=O)Nc2c(C)cc(Cc3cnc(N)nc3N)cc2C)cc1`, which XC50 is on record?
**A.** 1000 nM

**Q.** How did the XC50 turn out when `Cc1[nH]c(C)c(-c2ccc(OCCSc3ccncc3)cc2)c(=O)c1Br` was run?
**A.** 393 nM

**Q.** For `O=C(NCCc1ccccc1)N(Cc1cccc(-c2ccc(CNCc3ccc4c(c3)OCO4)cc2)c1)C1CCN(Cc2ccccc2)CC1`, which XC50 is on record?
**A.** 661 nM

**Q.** For `Cc1cccc2nc(-c3ccc(-c4cccc(CNCC5CCCO5)c4)s3)[nH]c12` (configuration not stated), which XC50 is on record?
**A.** 972 nM

**Q.** For `O=C(NC1CCN(CCN2CCC(c3ccccc3C(F)(F)F)CC2)CC1)c1ccc(-c2ccc(Cl)cc2)cc1`, which XC50 is on record?
**A.** 714 nM

**Q.** `CNC(=O)c1cnc(Nc2ccc(N3CCOCC3)cc2)nc1Nc1cccc(O)c1` was tested. Which XC50 did it give?
**A.** 808 nM

**Q.** With `CCCCCCCOc1ccc(NC(=O)Nc2ccc(Cn3ncc(N4CCCNCC4)c(Cl)c3=O)cc2)cc1` as the compound, how does the XC50 read?
**A.** 923 nM

**Q.** For `COc1cc2nc(Nc3ccc4c(c3)OCCO4)nc(N)c2cc1OC`, which XC50 is on record?
**A.** 469 nM

**Q.** How did the XC50 turn out when `O=[N+]([O-])c1ccc2nc(Nc3ccc(Cl)c(Cl)c3)c(Nc3ccc(Cl)c(Cl)c3)nc2c1` was run?
**A.** 793 nM

**Q.** Which XC50 does the source give for `CCOC(=O)c1cnc2c(OC)cc(OC)c(Cl)c2c1Nc1ccccc1` here?
**A.** 871 nM

**Q.** Which XC50 does the source give for `CCNc1cc(C(=O)N[C@@H](Cc2ccccc2)[C@H](O)CNC2(CC)CCCCC2)cc(N2CCCCS2(=O)=O)c1` here?
**A.** 265 nM

**Q.** For `Nc1nc2c(c(=O)[nH]1)CN(S(=O)(=O)c1ccc(C(=O)N[C@@H](CCC(=O)O)C(=O)O)cc1)CC2`, which XC50 is on record?
**A.** 146 nM

**Q.** For `COc1ccccc1NC(=S)N/N=C/c1ccc(O)cc1O`, which XC50 is on record?
**A.** 1020 nM

**Q.** How did the XC50 turn out when `Cc1nc2nc(N)nc(N)c2c(C)c1Cc1ccc([N+](=O)[O-])cc1` was run?
**A.** 438 nM

**Q.** With `COc1ccc(-c2nc3c(N)nc(N)nc3nc2C(C)C)cc1` as the compound, how does the XC50 read?
**A.** 188 nM

**Q.** Which XC50 does the source give for `COc1ccc2nc(C)cc(Nc3ccc(Oc4ccc5ccccc5c4Cl)c(Cl)c3)c2c1` here?
**A.** 501 nM

**Q.** `COc1ccc2ncc(F)c([C@H](O)CN3CCC(NCc4ccc5c(c4)OCCO5)CC3)c2c1` was tested. Which XC50 did it give?
**A.** 152 nM

**Q.** Which XC50 does the source give for `COc1ccc2nccc([C@@H](O)CN3CCC(NC/C=C/c4cccnc4)CC3)c2c1` here?
**A.** 622 nM

**Q.** How did the XC50 turn out when `O=C(Nc1cccc(N2CCC(NCc3cccnc3)CC2)c1)c1cccc(C(F)(F)F)c1` was run?
**A.** 970 nM

**Q.** Which XC50 does the source give for `O=C(NC1CCN(c2ccnc3cc(Cl)ccc23)C1)c1ccc(C(F)(F)F)cc1` (configuration not stated) here?
**A.** 143 nM

**Q.** For `CCn1ncc(Cl)c1CN(C)S(=O)(=O)c1ccc(Br)cc1`, which XC50 is on record?
**A.** 1020 nM

**Q.** Which XC50 does the source give for `CCN(CC)CCOc1ccc(C(O)(C#CC(O)(c2ccc(OCCN(CC)CC)cc2)c2ccc([N+](=O)[O-])cc2)c2ccc([N+](=O)[O-])cc2)cc1` (configuration not stated) here?
**A.** 1730 nM

**Q.** How did the XC50 turn out when `O=[N+]([O-])c1ccc(N/C(=N\c2ccccc2Br)NC2CCCc3ccccc32)c(O)c1` (configuration not stated) was run?
**A.** 919 nM

**Q.** Which XC50 does the source give for `COC(=O)c1ccc(CC(C)NCC(O)c2cc(Cl)c(N)c(Cl)c2)cc1` (configuration not stated) here?
**A.** 877 nM

**Q.** For `O=C(Nc1ccc(OC2CCN(Cc3ccc(F)cc3)C2)c(Cl)c1)c1ccsc1` (configuration not stated), which XC50 is on record?
**A.** 538 nM

**Q.** With `Cc1cc(OCC2CCN(c3ncc(C(=O)Nc4ccccc4)cc3Cl)CC2)ccc1F` as the compound, how does the XC50 read?
**A.** 899 nM

**Q.** For `O=C(Nc1ccc(Cl)cc1)c1cccc(S(=O)(=O)NC2CCN(CC3CCCCC3)C2)c1` (configuration not stated), which XC50 is on record?
**A.** 905 nM

**Q.** With `O=C(NCc1ccc(Cl)c(Cl)c1)c1ccc(C2CCCN(Cc3ccc4[nH]cnc4c3)C2)cc1` (configuration not stated) as the compound, how does the XC50 read?
**A.** 776 nM

**Q.** With `CC(C)CCNC(=O)C1Cc2c([nH]c3cc(Cl)ccc23)C2(CCN(CCc3ccccc3)CC2)N1` (configuration not stated) as the compound, how does the XC50 read?
**A.** 690 nM

**Q.** How did the XC50 turn out when `Oc1c(C(Nc2nc3ccccc3s2)c2ccccc2)ccc2cccnc12` (configuration not stated) was run?
**A.** 646 nM

**Q.** `CCOc1cc(C(=O)NCc2ccc(Cl)c(Cl)c2)ccc1-c1nc2cc(Cl)ccc2[nH]1` was tested. Which XC50 did it give?
**A.** 804 nM

**Q.** `CCOc1ccc2c(=NN=Cc3cc(OC)c(OC)c(OC)c3)cc(C)[nH]c2c1` was tested. Which XC50 did it give?
**A.** 613 nM

**Q.** With `COc1cccc(C(=O)NCCOc2ccccc2)c1Oc1ccccc1` as the compound, how does the XC50 read?
**A.** 918 nM

**Q.** Which XC50 does the source give for `CN(c1ccc(NC(=O)Nc2cc(C(F)(F)F)ccc2F)cc1)c1ccnc(NCCN2CCOCC2)n1` here?
**A.** 512 nM

**Q.** `N#Cc1cccc(C(=O)Nc2ccc(-c3nc4ccccc4[nH]3)cc2)c1` was tested. Which XC50 did it give?
**A.** 541 nM

**Q.** Which XC50 does the source give for `Oc1ccc(Cl)cc1CN1CCC(CCOC(c2ccccc2)c2ccc(Cl)cc2)CC1` (configuration not stated) here?
**A.** 390 nM

**Q.** With `N#Cc1cncc(-c2nc3c(N4CCC(Cc5ccccc5)CC4)cccc3n2C2CCNC2)c1` (configuration not stated) as the compound, how does the XC50 read?
**A.** 987 nM

**Q.** `COc1ccc(C2c3ccccc3-c3nc(N)nc(N)c3C2C)cc1` (configuration not stated) was tested. Which XC50 did it give?
**A.** 241 nM

**Q.** How did the XC50 turn out when `COc1cccc(OC)c1CN1CCC(N(C)CCCCCCCCCN2CCC(OC(=O)Nc3ccccc3-c3ccccc3)CC2)CC1` was run?
**A.** 319 nM

**Q.** With `COc1ccc(CN2CCC(NCc3cccc(C(F)(F)F)c3)CC2)cc1` as the compound, how does the XC50 read?
**A.** 753 nM

**Q.** How did the XC50 turn out when `Cc1cccc2nc(-c3ccc(-c4cccc(NC(=O)Cc5c[nH]cn5)c4)cc3)[nH]c12` was run?
**A.** 903 nM

**Q.** With `Cc1sc2nc(CSc3ccccc3)nc(N3CCN(CC(=O)NC4CC4)CC3)c2c1C` as the compound, how does the XC50 read?
**A.** 462 nM

**Q.** With `CCC[C@@H]([C@@H](CC1CCCCC1)C(=O)N[C@H](C(=O)Nc1ccccn1)[C@H](C)CC)N(O)C=O` as the compound, how does the XC50 read?
**A.** 533 nM

**Q.** `Cc1cccc2nc(-c3cccc(-c4cccc(CNCc5ccc(S(C)(=O)=O)cc5)c4)c3)[nH]c12` was tested. Which XC50 did it give?
**A.** 299 nM

**Q.** How did the XC50 turn out when `O=C(N/C=N/c1cc([N+](=O)[O-])c(-c2ccncc2)n1-c1ccccc1)c1cccc(O)c1` was run?
**A.** 331 nM

**Q.** `CCOC(=O)c1ccc(-c2c(C(F)(F)F)noc2-c2cc(CC)c(OC)cc2O)o1` was tested. Which XC50 did it give?
**A.** 206 nM

**Q.** For `CON=C1CCC(Cn2ccnc2)(c2ccc(Cl)cc2Cl)CC1` (configuration not stated), which XC50 is on record?
**A.** 875 nM

**Q.** With `COc1cccc(C(C)(C)NC[C@@H](O)[C@H](Cc2ccccc2)NC(=O)c2cc(C3CCCC3)cc(N3CCCCS3(=O)=O)c2F)c1` as the compound, how does the XC50 read?
**A.** 28.9 nM

**Q.** `COc1ccc(NC(=O)c2ccc(-c3nc(-c4ccccc4)cs3)cc2)cc1N1CCN(C)CC1` was tested. Which XC50 did it give?
**A.** 992 nM

**Q.** How did the XC50 turn out when `O=C(Nc1ccccc1)Nc1ccc(-c2cccc(-c3nc4cc(C(F)(F)F)ccc4[nH]3)c2)cc1` was run?
**A.** 734 nM

**Q.** Which XC50 does the source give for `CCCCOc1ccc(-n2c(Nc3ccccc3)nc3cc(S(N)(=O)=O)ccc32)cc1` here?
**A.** 887 nM

**Q.** `Clc1ccc2c(N3CCN(CCN4CCN(c5ccnc6cc(Cl)ccc56)CC4)CC3)ccnc2c1` was tested. Which XC50 did it give?
**A.** 128 nM

**Q.** Which XC50 does the source give for `O=C(C=Cc1ccc(Cl)c(Cl)c1)NCCCCCN1CCC(CCCNC(=O)c2sc3ccccc3c2Cl)CC1` here?
**A.** 398 nM

**Q.** For `CCCN(CCC)C(=O)c1cc(C(=O)N[C@@H](Cc2ccccc2)[C@H](O)CNC(C)(C)c2cccc(OC)c2)cc(N2CCCCS2(=O)=O)c1`, which XC50 is on record?
**A.** 29.8 nM

**Q.** For `CC(Cc1ccc(NC(=O)[C@H](C)NCCc2cccc(Cl)c2)cc1)NCCc1cccc(Cl)c1` (some centres not stated), which XC50 is on record?
**A.** 663 nM

**Q.** How did the XC50 turn out when `CC1(C)N=C(N)N=C(N)N1c1ccc(Oc2ccc(Cl)cc2)c(Cl)c1` was run?
**A.** 78.9 nM

**Q.** With `CO/C(=C\C=C\c1cc2cc(Cl)c(Cl)cc2[nH]1)C(=O)NC1CCN(CCOc2ccccc2)CC1` as the compound, how does the XC50 read?
**A.** 611 nM

**Q.** Which XC50 does the source give for `COC(=O)c1cc(OC2CCOC2=O)cc2c1OC(C)(C)O2` (configuration not stated) here?
**A.** 806 nM

**Q.** For `O=C(Nc1ccccc1)Nc1ccc(-n2ccc(C(F)(F)F)n2)cc1`, which XC50 is on record?
**A.** 632 nM

**Q.** How did the XC50 turn out when `COc1c(C2CCN(CCCCNC(=O)c3ccc(-c4ccc(Cl)cc4)c(OCCN(C)C)c3)CC2)ccc2c1CCCC2` was run?
**A.** 190 nM
